Reference: patent US20080181866A1, “Amido Anti-viral Compounds” (Genelabs Technologies, Inc., priority 2006, published 2008)

System: HCV replication
Test: HCV replicon assay (luciferase) in ET (Huh-lucubineo-ET) cell line
Assay type: cell-based
Conditions: Hepatitis C virus, tested at 5 μM; ET replicon cells; luciferase activity measured 48-72 hours later; relative to no compound control
Experimental: A cell line, ET (Huh-lucubineo-ET) was used for screening of compounds of the present invention for inhibiting HCV replication. The ET cell line was stably transfected with RNA transcripts harboring a I389luc-ubi-neo/NS3-3′/ET; replicon with firefly luciferase-ubiquitin-neomycin phosphotransferase fusion protein and EMCV-IRES driven NS3-5B polyprotein containing the cell culture adaptive mutations (E1202G; T12801; K1846T) (Krieger at al, 2001 and unpublished). The ET cells were grown in DMEM (Dulbeco's Modified Eagle's Medium), supplemented with 10% fetal calf serum, 2 mM Glutamine, Penicillin (100 IU/mL)/Streptomycin (100 μg/mL), 1× nonessential amino acids, and 250 μg/mL G418 (“Geneticin”). They were all available through Life Technologies (Bethesda, Md.). The cells were plated at 0.5-1.0×10^4 cells/well in the 96 well plates and incubated for 24 hrs before adding testing compounds. Then the compounds were added to the cells to achieve a final concentration of 0.1 nM to 50 μM and a final DMSO concentration of 0.5%. Luciferase activity were measured 48-72 hours later by adding a lysis buffer and the substrate (Catalog number Glo-lysis buffer E2661 and Bright-Glo luciferase system E2620 Promega, Madison, Wis.). Cells should not be too confluent during the assay. Percent inhibition of replication was plotted relative to no compound control. Under the same condition, cytotoxicity of the compounds was determined using cell proliferation reagent, WST-1 (Roche, Germany). The compounds showing antiviral activities, but no significant cytotoxicities were chosen to determine EC50 and TC50. For these determinations, a 10 point 2-fold serial dilution for each compound was used, which spans a concentration range of 1000 fold. EC50 and similarly TC50 values were calculated by fitting % inhibition at each concentration to the following equation:
% inhibition=100%/[(IC50/[I])^b+1]
where b is Hill's coefficient.
In some preferred embodiments compounds of Formula I will have a % inhibition of at least 20% when tested at 5 μM. In other embodiments the compounds of Formula I will have a % inhibition of at least 50% when tested at 5 μM.

Compound	inhibition at 5 µM
O=C(Nc1ccccc1)c1ccc(NC(=O)[C@@H]2CSC(c3ccncc3)N2C(=O)OCc2ccccc2)cc1 (stereo partly shown) [Compound 7076, 4-(4-Phenylcarbamoyl-phenylcarbamoyl)-2-pyridin-4-yl-thiazolidine-3-carboxylic acid benzyl ester]	3.9%
O=C(Nc1nc(-c2ccccc2)cs1)[C@@H]1CS[C@H](c2cccnc2)N1C(=O)OCc1ccccc1 [Compound 7058, (2R,4R)-4-(4-Phenyl-thiazol-2-ylcarbamoyl)-2-pyridin-3-yl-thiazolidine-3-carboxylic acid benzyl ester]	99.9%
O=C(NC1CC1)c1ccc(-c2csc(NC(=O)[C@@H]3CSC(C4CCOCC4)N3C(=O)OCc3ccccc3)n2)cc1 (mixture of isomers) [Compound 7025, (R)-4-[4-(4-Cyclopropylcarbamoyl-phenyl)-thiazol-2-ylcarbamoyl]-2-(tetrahydro-pyran-4-yl)-thiazolidine-3-carboxylic acid benzyl ester]	100%
CC(C)(C)OC(=O)N1C[C@H](c2ccccc2)C[C@H]1C(=O)Nc1nc(-c2ccc(C(=O)NC3CC3)cc2)cs1 [Compound 7038, (2S,4S)-2-[4-(4-Cyclopropylcarbamoyl-phenyl)-thiazol-2-ylcarbamoyl]-4-phenyl-pyrrolidine-1-carboxylic acid tert-butyl ester]	48.4%
COc1ccc(C2SC[C@@H](C(=O)Nc3nc(-c4ccc(C(=O)NC5CC5)cc4)cs3)N2C(=O)OCc2ccccc2)cc1 (mixture of isomers) [Compound 7030, (R)-4-[4-(4-Cyclopropylcarbamoyl-phenyl)-thiazol-2-ylcarbamoyl]-2-(4-methoxy-phenyl)-thiazolidine-3-carboxylic acid benzyl ester]	99.9%
O=C(NCCN1CCOCC1)c1ccc(-c2csc(NC(=O)[C@@H]3COC4(CCOCC4)N3C(=O)OCc3ccccc3)n2)cc1 [Compound 7141, 3-{4-[4-(2-Morpholin-4-yl-ethylcarbamoyl)-phenyl]-thiazol-2-ylcarbamoyl}-1,8-dioxa-4-aza-spiro[4.5]decane-4-carboxylic acid benzyl ester]	100%
O=C(NC1CC1)c1ccc(-c2csc(NC(=O)C3Cc4ccccc4N3C(=O)OCc3ccccc3)n2)cc1 (stereo not shown) [Compound 7019, 2-[4-(4-Cyclopropylcarbamoyl-phenyl)-thiazol-2-ylcarbamoyl]-2,3-dihydro-indole-1-carboxylic acid benzyl ester]	98.3%
O=C(Cc1cccc(NC(=O)[C@@H]2CSC(c3ccncc3)N2C(=O)OCc2ccccc2)c1)NCc1ccc(Cl)cc1 (stereo in doubt) [Compound 7115, 4-{3-[(4-Chloro-benzylcarbamoyl)-methyl]-phenylcarbamoyl}-2-pyridin-4-yl-thiazolidine-3-carboxylic acid benzyl ester]	98%
O=C(NC1CC1)c1ccc(-c2csc(NC(=O)[C@@H]3CSC(c4ccnc5ccccc45)N3C(=O)OCc3ccccc3)n2)cc1 (mixture of isomers) [Compound 7007, (R)-4-[4-(4-Cyclopropylcarbamoyl-phenyl)-thiazol-2-ylcarbamoyl]-2-quinolin-4-yl-thiazolidine-3-carboxylic acid benzyl ester]	100%
CC(=O)N1CCCC(C2SC[C@@H](C(=O)Nc3nc(-c4ccc(C(=O)NC5CC5)cc4)cs3)N2C(=O)OCc2ccccc2)C1 (mixture of isomers) [Compound 7133, 2-(1-Acetyl-piperidin-3-yl)-4-[4-(4-cyclopropylcarbamoyl-phenyl)-thiazol-2-ylcarbamoyl]-thiazolidine-3-carboxylic acid benzyl ester]	100%
COc1ccccc1C1SC[C@@H](C(=O)Nc2nc(-c3ccc(C(=O)NC4CC4)cc3)cs2)N1C(=O)OCc1ccccc1 (mixture of isomers) [Compound 7047, (R)-4-[4-(4-Cyclopropylcarbamoyl-phenyl)-thiazol-2-ylcarbamoyl]-2-(2-methoxy-phenyl)-thiazolidine-3-carboxylic acid benzyl ester]	99.6%
O=C(Cc1cccc(NC(=O)[C@@H]2CSC(c3ccncc3)N2C(=O)OCc2ccccc2)c1)NCCc1ccccc1 (stereo partly shown) [Compound 7136, 4-[3-(Phenethylcarbamoyl-methyl)-phenylcarbamoyl]-2-pyridin-4-yl-thiazolidine-3-carboxylic acid benzyl ester]	90%
O=C(Cc1ccc(NC(=O)[C@@H]2CSC(c3ccncc3)N2C(=O)OCc2ccccc2)cc1)NCCc1ccccc1 (stereo partly shown) [Compound 7119, 4-[4-(Phenethylcarbamoyl-methyl)-phenylcarbamoyl]-2-pyridin-4-yl-thiazolidine-3-carboxylic acid benzyl ester]	1.2%
O=C(NCc1ccccc1)c1cccc(NC(=O)[C@@H]2CSC(c3ccncc3)N2C(=O)OCc2ccccc2)c1 (stereo partly shown) [Compound 7100, 4-(3-Benzylcarbamoyl-phenylcarbamoyl)-2-pyridin-4-yl-thiazolidine-3-carboxylic acid benzyl ester]	80.1%
COc1ccc(Cc2cnc(NC(=O)[C@@H]3CSC(c4ccncc4)N3C(=O)OCc3ccccc3)s2)cc1 (stereo in doubt) [Compound 7137, 4-[5-(4-Methoxy-benzyl)-thiazol-2-ylcarbamoyl]-2-pyridin-4-yl-thiazolidine-3-carboxylic acid benzyl ester]	17.1%
O=C(NC1CC1)c1ccc(-c2csc(NC(=O)[C@@H]3CSC(c4ccccc4)N3C(=O)OCc3ccccc3)n2)cc1 (stereo partly drawn) [Compound 7044, (R)-4-[4-(4-Cyclopropylcarbamoyl-phenyl)-thiazol-2-ylcarbamoyl]-2-phenyl-thiazolidine-3-carboxylic acid benzyl ester]	98%
CN(C(=O)[C@@H]1CSC(c2ccncc2)N1C(=O)OCc1ccccc1)c1nc(-c2ccc(C(=O)NC3CC3)cc2)cs1 (stereo partly shown) [Compound 7106, 4-{[4-(4-Cyclopropylcarbamoyl-phenyl)-thiazol-2-yl]-methyl-carbamoyl}-2-pyridin-4-yl-thiazolidine-3-carboxylic acid benzyl ester]	32.9%
O=C(NC1CC1)c1ccc(-c2csc(NC(=O)[C@@H]3CSC(c4ccnc(O)c4)N3C(=O)OCc3ccccc3)n2)cc1 (mixture of isomers) [Compound 7049, (R)-4-[4-(4-Cyclopropylcarbamoyl-phenyl)-thiazol-2-ylcarbamoyl]-2-(2-hydroxy-pyridin-4-yl)-thiazolidine-3-carboxylic acid benzyl ester]	98.8%
O=C(NC1CC1)c1ccc(-c2csc(NC(=O)[C@@H]3CSC(c4cccc(F)c4)N3C(=O)OCc3ccccc3)n2)cc1 (mixture of isomers) [Compound 7048, (R)-4-[4-(4-Cyclopropylcarbamoyl-phenyl)-thiazol-2-ylcarbamoyl]-2-(3-fluoro-phenyl)-thiazolidine-3-carboxylic acid benzyl ester]	99.3%
CNC(=O)CCCCC1SC[C@@H](C(=O)Nc2nc(-c3ccc(C(=O)NC4CC4)cc3)cs2)N1C(=O)OCc1ccccc1 (stereo partly shown) [Compound 7099, 4-[4-(4-Cyclopropylcarbamoyl-phenyl)-thiazol-2-ylcarbamoyl]-2-(4-methylcarbamoyl-butyl)-thiazolidine-3-carboxylic acid benzyl ester]	100%
CC(C)(C)OC(=O)N1C(c2cccnc2)SC[C@H]1C(=O)Nc1nc(-c2ccc(C(=O)NC3CC3)cc2)cs1 (single isomer, unassigned) [Compound 7032, 4-[4-(4-Cyclopropylcarbamoyl-phenyl)-thiazol-2-ylcarbamoyl]-2-pyridin-3-yl-thiazolidine-3-carboxylic acid tert-butyl ester]	99.2%
NC(=O)c1ccc(NC(=O)[C@@H]2CSC(c3ccncc3)N2C(=O)OCc2ccccc2)cc1 (stereo partly shown) [Compound 7134, 4-(4-carbamoyl-phenylcarbamoyl)-2-pyridin-4-yl-thiazolidine-3-carboxylic acid benzyl ester]	13.6%
CC1SC[C@@H](C(=O)Nc2nc(-c3ccc(C(=O)NC4CC4)cc3)cs2)N1C(=O)OCc1ccccc1 (stereo partly drawn) [Compound 7024, (R)-4-[4-(4-Cyclopropylcarbamoyl-phenyl)-thiazol-2-ylcarbamoyl]-2-methyl-thiazolidine-3-carboxylic acid benzyl ester]	99.7%
O=C(NC1CC1)c1ccc(-c2csc(NC(=O)[C@@H]3CC[C@H](c4ccncc4)N3C(=O)OCc3ccccc3)n2)cc1 [Compound 7003, (2S,5R)-2-[4-(4-Cyclopropylcarbamoyl-phenyl)-thiazol-2-ylcarbamoyl]-5-pyridin-4-yl-pyrrolidine-1-carboxylic acid benzyl ester]	100%
O=C(NCCN1CCOCC1)c1ccc(-c2csc(NC(=O)[C@@H]3CSC4(CCOCC4)N3C(=O)OCc3ccccc3)n2)cc1 [Compound 7138, 3-{4-[4-(2-Morpholin-4-yl-ethylcarbamoyl)-phenyl]-thiazol-2-ylcarbamoyl}-8-oxa-1-thia-4-aza-spiro[4.5]decane-4-carboxylic acid benzyl ester]	100%
